Source: PMC8617627, “Novel DYRK1A Inhibitor Rescues Learning and Memory Deficits in a Mouse Model of Down Syndrome” (Pharmaceuticals, 2021)
Like-named read-outs stand apart in the source and are kept apart here.

Assays:
Assay in all cases: Kinase profile (33P ATP filter binding)
Format in all cases: biochemical
EPH-A2 = EPH-A2 (Homo sapiens, UniProt P29317); conditions: read-out: Remaining protein kinase activity
EPH-B1 = biological target: T1, EPH-B1 (Homo sapiens, UniProt P54762); conditions: read-out: Remaining protein kinase activity
T1 sequence (P54762 18-984): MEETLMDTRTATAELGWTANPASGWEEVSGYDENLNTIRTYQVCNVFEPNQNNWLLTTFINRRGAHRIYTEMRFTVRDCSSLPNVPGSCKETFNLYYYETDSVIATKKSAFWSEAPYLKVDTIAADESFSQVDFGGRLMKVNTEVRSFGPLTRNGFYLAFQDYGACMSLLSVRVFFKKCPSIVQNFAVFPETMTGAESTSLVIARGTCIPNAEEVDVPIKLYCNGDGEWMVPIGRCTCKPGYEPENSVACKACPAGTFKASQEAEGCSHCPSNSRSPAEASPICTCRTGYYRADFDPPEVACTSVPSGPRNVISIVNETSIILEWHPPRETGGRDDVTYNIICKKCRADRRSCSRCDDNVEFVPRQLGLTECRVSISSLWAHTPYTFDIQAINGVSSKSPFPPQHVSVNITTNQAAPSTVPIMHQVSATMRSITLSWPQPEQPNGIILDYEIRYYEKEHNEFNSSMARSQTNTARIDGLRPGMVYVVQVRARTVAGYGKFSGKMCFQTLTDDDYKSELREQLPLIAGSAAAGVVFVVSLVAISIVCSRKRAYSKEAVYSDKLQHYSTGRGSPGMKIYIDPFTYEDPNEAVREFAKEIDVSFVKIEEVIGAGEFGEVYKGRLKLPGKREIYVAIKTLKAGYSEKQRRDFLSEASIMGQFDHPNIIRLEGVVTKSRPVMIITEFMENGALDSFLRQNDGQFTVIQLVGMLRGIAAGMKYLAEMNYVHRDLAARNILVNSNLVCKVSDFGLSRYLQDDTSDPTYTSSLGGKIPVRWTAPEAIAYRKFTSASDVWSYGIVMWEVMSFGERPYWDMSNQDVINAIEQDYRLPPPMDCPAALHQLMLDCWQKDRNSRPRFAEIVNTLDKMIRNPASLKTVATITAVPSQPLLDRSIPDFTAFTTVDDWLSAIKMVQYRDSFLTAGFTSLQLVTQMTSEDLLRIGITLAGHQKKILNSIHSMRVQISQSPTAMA

JAK2 = JAK2 (Homo sapiens, UniProt O60674)
Chain of JAK2 (O60674 whole entry): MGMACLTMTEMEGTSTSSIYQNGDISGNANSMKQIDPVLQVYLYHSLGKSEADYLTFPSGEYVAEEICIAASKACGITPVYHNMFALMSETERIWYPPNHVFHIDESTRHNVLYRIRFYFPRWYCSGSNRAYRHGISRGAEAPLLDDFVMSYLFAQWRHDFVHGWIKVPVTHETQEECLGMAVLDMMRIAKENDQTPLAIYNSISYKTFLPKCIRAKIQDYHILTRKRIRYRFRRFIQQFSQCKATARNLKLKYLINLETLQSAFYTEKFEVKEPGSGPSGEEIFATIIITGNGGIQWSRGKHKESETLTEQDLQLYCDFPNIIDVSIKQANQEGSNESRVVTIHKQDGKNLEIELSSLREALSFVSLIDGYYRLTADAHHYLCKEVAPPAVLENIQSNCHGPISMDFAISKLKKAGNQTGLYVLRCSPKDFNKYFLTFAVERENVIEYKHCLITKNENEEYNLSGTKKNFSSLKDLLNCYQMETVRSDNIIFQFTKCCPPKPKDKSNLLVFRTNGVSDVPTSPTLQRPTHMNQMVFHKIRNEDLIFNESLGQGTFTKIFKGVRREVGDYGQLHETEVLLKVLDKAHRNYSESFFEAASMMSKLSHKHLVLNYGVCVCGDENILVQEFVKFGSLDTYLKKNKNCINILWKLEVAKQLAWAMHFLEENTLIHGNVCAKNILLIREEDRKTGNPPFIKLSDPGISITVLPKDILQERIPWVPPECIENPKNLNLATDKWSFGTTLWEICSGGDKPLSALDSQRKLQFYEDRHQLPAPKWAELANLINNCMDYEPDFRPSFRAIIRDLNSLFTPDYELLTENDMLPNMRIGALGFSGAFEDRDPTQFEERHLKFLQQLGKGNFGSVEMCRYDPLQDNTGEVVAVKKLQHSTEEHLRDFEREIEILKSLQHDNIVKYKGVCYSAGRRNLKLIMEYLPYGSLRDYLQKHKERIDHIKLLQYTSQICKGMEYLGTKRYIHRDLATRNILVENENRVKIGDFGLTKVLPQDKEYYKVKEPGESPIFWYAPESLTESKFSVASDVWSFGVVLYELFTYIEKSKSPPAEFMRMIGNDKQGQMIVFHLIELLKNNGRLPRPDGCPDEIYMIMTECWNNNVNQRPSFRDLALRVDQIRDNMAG

MKK2 = MKK2 (Homo sapiens, UniProt P36507); conditions: read-out: Remaining protein kinase activity
Chain of MKK2 (P36507 whole entry, species assumed): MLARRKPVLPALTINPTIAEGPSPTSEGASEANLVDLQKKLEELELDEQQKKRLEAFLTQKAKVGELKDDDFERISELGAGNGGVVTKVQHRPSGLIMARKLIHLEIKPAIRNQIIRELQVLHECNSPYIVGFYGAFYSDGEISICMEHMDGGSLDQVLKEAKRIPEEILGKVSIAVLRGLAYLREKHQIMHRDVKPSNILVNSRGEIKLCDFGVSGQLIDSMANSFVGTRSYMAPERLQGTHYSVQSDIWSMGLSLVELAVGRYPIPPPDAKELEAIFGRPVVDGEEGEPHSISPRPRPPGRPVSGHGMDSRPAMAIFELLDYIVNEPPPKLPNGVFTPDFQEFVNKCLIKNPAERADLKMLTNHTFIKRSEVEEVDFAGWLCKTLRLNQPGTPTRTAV

MPSK1 = MPSK1 (Homo sapiens, UniProt O75716); conditions: read-out: Remaining protein kinase activity
Chain of MPSK1 (O75716 whole entry): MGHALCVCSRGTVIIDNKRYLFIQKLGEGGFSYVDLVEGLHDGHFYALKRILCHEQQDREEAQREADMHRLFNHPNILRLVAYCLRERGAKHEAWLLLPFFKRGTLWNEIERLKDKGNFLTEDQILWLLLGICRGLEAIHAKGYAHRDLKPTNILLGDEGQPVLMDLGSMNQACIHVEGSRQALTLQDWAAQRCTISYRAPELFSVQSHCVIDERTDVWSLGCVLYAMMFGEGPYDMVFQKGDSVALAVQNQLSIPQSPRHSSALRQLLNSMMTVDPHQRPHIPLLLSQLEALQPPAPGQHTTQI

MST3 = MST3 (Homo sapiens, UniProt Q9Y6E0)
Chain of MST3 (Q9Y6E0 whole entry): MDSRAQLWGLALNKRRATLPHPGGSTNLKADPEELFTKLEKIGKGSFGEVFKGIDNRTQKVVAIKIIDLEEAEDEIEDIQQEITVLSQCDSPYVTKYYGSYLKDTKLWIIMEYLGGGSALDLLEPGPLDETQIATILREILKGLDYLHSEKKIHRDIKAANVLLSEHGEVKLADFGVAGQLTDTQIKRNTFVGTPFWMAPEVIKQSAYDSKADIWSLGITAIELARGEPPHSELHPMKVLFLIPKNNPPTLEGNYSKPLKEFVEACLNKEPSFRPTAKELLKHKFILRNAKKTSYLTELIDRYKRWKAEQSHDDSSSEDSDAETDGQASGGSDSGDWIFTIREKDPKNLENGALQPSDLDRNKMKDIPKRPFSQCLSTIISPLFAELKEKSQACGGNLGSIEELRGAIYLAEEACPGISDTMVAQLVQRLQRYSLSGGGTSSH

PKBa = PKBa (Homo sapiens, UniProt P31749); conditions: read-out: Remaining protein kinase activity
PKBb = PKBb (Homo sapiens, UniProt P31751); conditions: read-out: Remaining protein kinase activity
Chain of PKBb (P31751 whole entry): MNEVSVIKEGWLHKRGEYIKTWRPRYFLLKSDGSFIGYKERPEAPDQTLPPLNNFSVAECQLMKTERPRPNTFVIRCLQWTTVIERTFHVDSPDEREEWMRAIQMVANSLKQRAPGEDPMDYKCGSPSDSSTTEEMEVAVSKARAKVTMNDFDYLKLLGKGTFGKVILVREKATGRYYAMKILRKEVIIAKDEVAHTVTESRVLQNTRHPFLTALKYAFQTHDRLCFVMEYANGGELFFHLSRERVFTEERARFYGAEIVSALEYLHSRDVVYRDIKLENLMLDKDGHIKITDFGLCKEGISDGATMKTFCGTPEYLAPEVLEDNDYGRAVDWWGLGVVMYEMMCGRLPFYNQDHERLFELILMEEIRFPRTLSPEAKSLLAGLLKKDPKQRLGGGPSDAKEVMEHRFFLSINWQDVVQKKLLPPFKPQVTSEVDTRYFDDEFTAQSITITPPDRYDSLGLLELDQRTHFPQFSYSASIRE

ROCK 2 = ROCK 2 (Homo sapiens, UniProt O75116); conditions: read-out: Remaining protein kinase activity
Chain of ROCK 2 (O75116 whole entry, species assumed): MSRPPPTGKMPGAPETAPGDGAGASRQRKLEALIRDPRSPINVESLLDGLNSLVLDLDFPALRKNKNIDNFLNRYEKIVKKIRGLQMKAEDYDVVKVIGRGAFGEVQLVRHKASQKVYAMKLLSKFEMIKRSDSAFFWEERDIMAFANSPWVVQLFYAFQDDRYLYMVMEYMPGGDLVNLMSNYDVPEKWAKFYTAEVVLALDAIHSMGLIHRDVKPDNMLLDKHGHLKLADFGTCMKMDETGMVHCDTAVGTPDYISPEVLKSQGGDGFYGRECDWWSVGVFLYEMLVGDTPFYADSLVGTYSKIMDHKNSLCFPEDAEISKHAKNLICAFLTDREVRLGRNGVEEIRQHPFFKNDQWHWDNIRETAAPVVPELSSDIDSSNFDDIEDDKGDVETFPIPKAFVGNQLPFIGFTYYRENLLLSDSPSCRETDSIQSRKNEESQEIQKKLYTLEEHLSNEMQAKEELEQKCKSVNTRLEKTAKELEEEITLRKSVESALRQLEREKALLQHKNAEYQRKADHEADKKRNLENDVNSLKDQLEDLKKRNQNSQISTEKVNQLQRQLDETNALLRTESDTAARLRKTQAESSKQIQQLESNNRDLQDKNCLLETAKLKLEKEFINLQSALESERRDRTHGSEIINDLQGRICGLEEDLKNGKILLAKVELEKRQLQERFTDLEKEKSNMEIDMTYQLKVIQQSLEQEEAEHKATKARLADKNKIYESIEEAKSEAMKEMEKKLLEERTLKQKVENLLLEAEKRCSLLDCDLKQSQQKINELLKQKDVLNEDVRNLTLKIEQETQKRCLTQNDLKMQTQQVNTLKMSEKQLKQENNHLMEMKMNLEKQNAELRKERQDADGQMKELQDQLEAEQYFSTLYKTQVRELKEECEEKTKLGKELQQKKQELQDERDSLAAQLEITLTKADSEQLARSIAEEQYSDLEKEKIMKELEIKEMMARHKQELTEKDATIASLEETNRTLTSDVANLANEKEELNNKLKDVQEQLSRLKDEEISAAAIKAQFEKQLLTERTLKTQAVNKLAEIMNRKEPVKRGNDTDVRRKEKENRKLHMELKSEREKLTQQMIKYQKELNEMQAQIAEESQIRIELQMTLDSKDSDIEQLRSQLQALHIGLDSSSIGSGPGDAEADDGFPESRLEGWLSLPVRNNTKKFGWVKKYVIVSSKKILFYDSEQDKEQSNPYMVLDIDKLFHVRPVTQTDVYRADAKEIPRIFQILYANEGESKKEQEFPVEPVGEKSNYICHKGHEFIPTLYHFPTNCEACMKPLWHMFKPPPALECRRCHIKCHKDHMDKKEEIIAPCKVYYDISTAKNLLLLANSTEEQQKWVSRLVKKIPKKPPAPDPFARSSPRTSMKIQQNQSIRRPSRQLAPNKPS

S6K1 = S6K1 (Homo sapiens, UniProt P23443); conditions: read-out: Remaining protein kinase activity
Chain of S6K1 (P23443 whole entry, species assumed): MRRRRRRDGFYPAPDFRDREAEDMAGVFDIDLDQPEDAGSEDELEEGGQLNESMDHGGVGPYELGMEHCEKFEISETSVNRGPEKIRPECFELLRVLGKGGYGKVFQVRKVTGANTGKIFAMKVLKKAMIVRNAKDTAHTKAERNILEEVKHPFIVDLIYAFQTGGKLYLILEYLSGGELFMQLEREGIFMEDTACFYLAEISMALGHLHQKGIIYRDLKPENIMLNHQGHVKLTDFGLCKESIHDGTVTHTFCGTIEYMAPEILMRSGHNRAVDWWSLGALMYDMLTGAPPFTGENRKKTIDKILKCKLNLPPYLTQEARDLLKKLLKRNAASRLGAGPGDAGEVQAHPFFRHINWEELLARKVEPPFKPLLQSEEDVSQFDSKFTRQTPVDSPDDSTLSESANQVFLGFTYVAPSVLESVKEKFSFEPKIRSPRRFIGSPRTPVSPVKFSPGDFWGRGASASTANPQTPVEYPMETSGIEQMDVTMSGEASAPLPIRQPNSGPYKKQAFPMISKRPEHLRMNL

TAK1 = biological target: T2, TAK1 (Homo sapiens, UniProt O43318); conditions: read-out: Remaining protein kinase activity
T2 sequence (O43318 1-303 limits assumed): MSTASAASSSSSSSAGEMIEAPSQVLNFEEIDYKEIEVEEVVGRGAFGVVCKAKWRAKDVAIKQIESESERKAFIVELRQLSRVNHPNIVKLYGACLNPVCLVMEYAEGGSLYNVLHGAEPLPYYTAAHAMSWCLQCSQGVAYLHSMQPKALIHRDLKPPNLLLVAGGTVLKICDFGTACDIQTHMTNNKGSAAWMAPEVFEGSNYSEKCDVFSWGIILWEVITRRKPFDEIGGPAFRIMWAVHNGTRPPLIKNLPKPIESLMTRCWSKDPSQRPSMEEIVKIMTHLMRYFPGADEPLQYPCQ

SMILES: COc1ccc2sc(-c3cncc(N)c3)nc2c1 [compound 1, 5-(5-Methoxybenzo[d]thiazol-2-yl)pyridin-3-amine]
- remaining activity at 1 µM (EPH-A2; EPH-A2, 1 μM): 112%
- remaining activity at 100 µM (EPH-A2; EPH-A2, 100 μM): 90%
- remaining activity at 1 µM (EPH-B1; EPH-B1, 1 μM): 122%
- remaining activity at 100 µM (EPH-B1; EPH-B1, 100 μM): 91%
- Remaining protein kinase activity (JAK2; 1 μM): 117%
- Remaining protein kinase activity (JAK2; 100 μM): 55%
- remaining activity at 1 µM (MKK2; MKK2, 1 μM): 81%
- remaining activity at 100 µM (MKK2; MKK2, 100 μM): 62%
- remaining activity at 1 µM (MPSK1; MPSK1, 1 μM): 110%
- remaining activity at 100 µM (MPSK1; MPSK1, 100 μM): 106%
- Remaining protein kinase activity (MST3; 1 μM): 114%
- Remaining protein kinase activity (MST3; 100 μM): 96%
- remaining activity at 1 µM (PKBa; PKBa, 1 μM): 120%
- remaining activity at 100 µM (PKBa; PKBa, 100 μM): 72%
- remaining activity at 1 µM (PKBb; PKBb, 1 μM): 123%
- remaining activity at 100 µM (PKBb; PKBb, 100 μM): 15%
- remaining activity at 1 µM (ROCK 2; ROCK 2, 1 μM): 108%
- remaining activity at 100 µM (ROCK 2; ROCK 2, 100 μM): 5%
- remaining activity at 1 µM (S6K1; S6K1, 1 μM): 118%
- remaining activity at 100 µM (S6K1; S6K1, 100 μM): 58%
- remaining activity at 1 µM (TAK1; TAK1, 1 μM): 70%
- remaining activity at 100 µM (TAK1; TAK1, 100 μM): 6%

SMILES: COc1ccc2sc(-c3cncc(NC(C)=O)c3)nc2c1 [PST-001, N-(5-(5-Methoxybenzo[d]thiazol-2-yl)pyridin-3-yl)acetamide]
- remaining activity at 1 µM (EPH-A2): 124%
- remaining activity at 100 µM (EPH-A2): 119%
- remaining activity at 1 µM (EPH-B1): 117%
- remaining activity at 100 µM (EPH-B1): 108%
- Remaining protein kinase activity (JAK2; 1 μM): 123%
- Remaining protein kinase activity (JAK2; 100 μM): 125%
- remaining activity at 1 µM (MKK2): 75%
- remaining activity at 100 µM (MKK2): 100%
- remaining activity at 1 µM (MPSK1): 121%
- remaining activity at 100 µM (MPSK1): 113%
- Remaining protein kinase activity (MST3; 1 μM): 118%
- Remaining protein kinase activity (MST3; 100 μM): 113%
- remaining activity at 1 µM (PKBa): 116%
- remaining activity at 100 µM (PKBa): 106%
- remaining activity at 1 µM (PKBb): 112%
- remaining activity at 100 µM (PKBb): 98%
- remaining activity at 1 µM (ROCK 2): 110%
- remaining activity at 100 µM (ROCK 2): 64%
- remaining activity at 1 µM (S6K1): 113%
- remaining activity at 100 µM (S6K1): 81%
- remaining activity at 1 µM (TAK1): 48%
- remaining activity at 100 µM (TAK1): 63%
